According to patent publication US8470842B2, “Hydrochloride salts of 8-[{1-(3,5-Bis-trifluoromethyl)phenyl)-ethoxy}-methyl]-8-phenyl-1,7-diaza-spiro[4.5]decan-2-one and preparation process therefor” (OPKO Health, Inc., priority 2006, dated 2013):
Entries after “also recorded” stand apart in the source; their conditions may differ. Counter-ions that a name gives are not always drawn.

How the values were obtained:
Type in all cases: physicochemical
[1] = Chemical stability tests on storage under humidity and temperature conditions
Description: Chemical stability tests were carried out on aliquots of the salt form of interest by placing a accurately weighed sample of the salt form of the compound of Formula I into a polyethylene bag. The bagged samples were enclosed in fiberboard tubes fitted with metal caps which were stored under the indicated conditions of humidity and temperature for the indicated time. Analysis was carried out by dissolving the contents of a vial and quantifying the amount of solute utilizing HPLC analysis. Where noted the aliquots were stored in capped amber vials under the conditions noted instead of polyethylene bags.
(§1) The stability of the crystalline monohydrate hydrochloride salt form of the compound of Formula I was also examined using the procedure described above for samples contained in polyethylene bags by exposing samples to the following conditions: (a) 60% relative humidity (RH) at 4° C. for twelve months, at 25° C. for eighteen months, and at 50° C. for one month; (b) 40° C. and 75% relative humidity (RH) for twelve weeks, and (c) 70° C. at ambient humidity for one hour. Samples of the crystalline monohydrate hydrochloride form I salt were also tested for one cycle of ICH UV/Vis light stress conditions.
(§2) The stability of the crystalline tosylate form I salt form of the compound of Formula I was examined by placing weighed amounts of the salt into clear glass vials and storing them under the indicated conditions. Periodically a vial was removed and the contents examined for decomposition of the compound. Accordingly, samples of the tosylate form I salt were exposed to the following conditions: (a) 40° C. and 75% relative humidity (RH) for four weeks; (b) 50° C. and ambient relative humidity for four weeks; and (c) 70° C. for one hour. Samples of the tosylate form I salt were separately tested for one cycle of ICH UV/Vis light stress conditions.

[2] = Solubility tests (equilibrated slurry, HPLC quantification); settings: for aqueous solubility: water, pH of 4 or less (more acidic)
Description: Solubility tests were conducted by placing an excess of the compound in an aliquot of the solvent of interest and allowing the slurry to equilibrate under the selected temperature conditions (typically ambient). When the solvent was water, pH was adjusted to the desired value with hydrochloric acid and sodium hydroxide. When the slurry mixture had equilibrated, the excess solids were centrifuged (water) or filtered (all other solvents) from the supernatant and the amount of compound which had been dissolved was quantified utilizing HPLC analysis of diluted aliquots of the supernatant liquid. Pharmaceutical grade solvents were employed.

[3] = ICH UV/Vis light stress conditions; settings: one cycle of ICH UV/Vis light stress conditions
Description: as §1, §2

[4] = solvent Ethanol, ambient temperature
[5] = solvent Glycerin, ambient temperature
[6] = solvent PEG 400, ambient temperature
[7] = solvent Propylene Glycol, ambient temperature

SMILES	form change on storage ([1]; storage under ambient conditions of temperature and humidity after dehydration)	Solubility (mg/ml, ambient conditions) [2, 4] [mg/mL]	Solubility (mg/ml, ambient conditions) [2, 5] [mg/mL]	Solubility (mg/ml, ambient conditions) [2, 6] [mg/mL]	Solubility (mg/ml, ambient conditions) [2, 7] [mg/mL]	aqueous solubility [2]	temperature up to which the salt is stable ([1]; 70° C. at ambient humidity for one hour, polyethylene bags)	stability at ambient/room temperature over relative humidity range ([1]; ambient temperature, about 5% to about 95% relative humidity)	stability under light stress [3]	stability under all tested conditions ([1]; clear glass vials, 40° C./75% RH four weeks, 50° C./ambient RH four weeks, 70° C. one hour, one cycle ICH UV/Vis light stress)
C[C@@H](OC[C@@]1(c2ccccc2)CC[C@]2(CCC(=O)N2)CN1)c1cc(C(F)(F)F)cc(C(F)(F)F)c1 [anhydrous form I salt, (5S,8S)-8-[{(1R)-1-(3,5-Bis-(trifluoromethyl)phenyl)-ethoxy}-methyl]-8-phenyl-1,7-diazaspiro[4.5]decan-2-one]	returns the crystals to the monohydrate form									
C[C@@H](OC[C@@]1(c2ccccc2)CC[C@]2(CCC(=O)N2)CN1)c1cc(C(F)(F)F)cc(C(F)(F)F)c1 [monohydrate hydrochloride form I salt, (5S,8S)-8-[{(1R)-1-(3,5-Bis-(trifluoromethyl)phenyl)-ethoxy}-methyl]-8-phenyl-1,7-diazaspiro[4.5]decan-2-one]		185	16	20	160	at least 1.0 mg/ml	about 70 °C	does not decompose or dehydrate; also recorded: stable at room temperature	stable under light stress conditions	
C[C@@H](OC[C@@]1(c2ccccc2)CC[C@]2(CCC(=O)N2)CN1)c1cc(C(F)(F)F)cc(C(F)(F)F)c1 [tosylate form I salt, (5S,8S)-8-[{(1R)-1-(3,5-Bis-(trifluoromethyl)phenyl)-ethoxy}-methyl]-8-phenyl-1,7-diazaspiro[4.5]decan-2-one]		75	2.5	1.8	20	at least 0.38 mg/ml				stable under all tested conditions
